Drawing on PubChem BioAssay (NCI), this text covers GI50 and TGI for eight compounds.

What all share (assay): DTP human tumour cell line panel, 48 h
In test [1] the test system is NCI-H460 lung.
Test [2] relates to LOX IMVI melanoma.
For test [3], the system named is SF-268 CNS.
Test [4] concerns HCT-116 colon.
Test [5] relates to COLO 205 colon.
Test [6] relates to OVCAR-3 ovarian.
The subject of test [7] is HT29 colon.
Test [8] concerns SNB-19 CNS.
The test system of test [9] is HL-60(TB) leukemia.
The test system of test [10] is SF-295 CNS.

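These data come from cells grown in 96-well plates and exposed to compound for 48 hours at five concentrations. GI50 = concentration required for 50% inhibition of growth. Definition used: TGI = concentration required for complete inhibition of growth.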

One may read the GI50 as the concentration that inhibits growth by half. The term TGI denotes the concentration giving total growth inhibition. Consider `CCN(Cc1ccccc1)c1ccc(CO)c(Cl)c1`, for which the 50% growth inhibitory concentration (GI50) in test [1] was 0.327 µM; in [2], 23.8 µM; in test [3], 26.7 µM; in test [4], 0.11 µM; in test [5], 1.74 µM; in test [6], 0.658 µM. In addition, the GI50 in test [7] was 3.07 µM; in test [8] it was 51.4 µM; in [9], 11.1 µM; in [10] it was 1 µM. The TGI in [1] is 13.9 µM; in [2], more than 100 µM; in test [3], more than 70.6 µM; in [4], 10.2 µM; in [5], 4.51 µM; in test [6], 3.62 µM. In addition, the TGI was 36.3 µM in test [7], more than 100 µM in [8], 46.7 µM in test [9] and more than 56 µM in [10].
For `C/C(=N\Nc1cc(C)c2ccccc2n1)c1ccccn1`, the concentration for 50% growth inhibition (GI50) in test [1] is less than 0.0387 µM; in [2] it was 0.0807 µM; in test [3], 0.0433 µM; in test [4] it was less than 0.0401 µM; in test [5], less than 0.0188 µM; in test [6] it was less than 0.0194 µM. Moreover, the GI50 in test [7] was 0.0408 µM; in test [8], 0.159 µM; in test [9] it was less than 0.0365 µM. The TGI in test [1] amounted to 1.17 µM; in [2], 1.31 µM; in test [3] it was 1.71 µM; in test [4], 1.29 µM; in [5], 1.98 µM; in [6] it was 3.51 µM. Also, the total growth inhibition concentration (TGI) was found to be 1.8 µM in [7], 13.6 µM in test [8], 0.155 µM in test [9] and 0.499 µM in test [10].
Consider `C=C(NC(=O)C(=C)NC(=O)c1csc(C2=NC3c4csc(n4)C4NC(=O)c5csc(n5)C(C(C)(O)C(C)O)NC(=O)C5CSC(=N5)C(=CC)NC(=O)C(C(C)O)NC(=O)c5csc(n5)C3(CC2)NC(=O)C(C)NC(=O)C(=C)NC(=O)C(C)NC(=O)C(C(C)CC)NC2C=Cc3c(C(C)O)cc(nc3C2O)C(=O)OC4C)n1)C(N)=O` (centres undefined), for which the GI50 in [1] is 17 µM; in test [2], 3.7 µM; in test [3] it was 19.6 µM; in test [4], 1.74 µM; in [5], 2.72 µM; in [6] it was 6.59 µM. Also, the GI50 is 10.4 µM in test [7], 54 µM in test [8], 5.13 µM in [9] and 21.2 µM in [10]. Further, the total growth inhibition concentration (TGI) in test [1] was more than 100 µM; in [2], more than 100 µM; in test [3], more than 100 µM; in test [4], 4.09 µM; in test [5] it was 13.7 µM; in test [6], more than 100 µM. Besides, the TGI is more than 100 µM in test [7], more than 100 µM in [8], 31.7 µM in test [9] and 66.9 µM in test [10].
Take `C#CC1(OC(C)=O)CCC2C3CC=C4C=C(OC(C)=O)CCC4(C)C3CCC21C` (centres undefined): the TGI in [1] is 61.8 µM; in [2], 53.2 µM; in [3], 48.4 µM; in [4], 44.3 µM; in [5] it was 58.5 µM; in test [6] it was 41.5 µM. The TGI in test [7] is 40 µM; in [8], more than 100 µM; in test [9], more than 100 µM; in test [10] it was 62 µM.
As to `C[C@@H](O)[C@H](NC(=O)N[C@@H](CC(N)=O)c1nc([C@@H](N)CO)no1)C(=O)O`, the GI50 in test [1], in test [2], in test [3], in test [4], in [5] and in [6] was more than 100 µM each time. The GI50 in test [7], in test [8], in test [9] and in test [10] was more than 100 µM each time. Moreover, the TGI in [1], in test [2], in [3], in [4], in test [5] and in [6] was more than 100 µM in each case. Also, the total growth inhibition concentration (TGI) in test [7], in [8], in [9] and in [10] was more than 100 µM throughout.
With `COc1cc(N2CCC(N3CCN(C)CC3)CC2)ccc1Nc1ncnc(Nc2ccccc2S(=O)(=O)C(C)C)n1`, the GI50 is 7.24 µM in test [1]; 2.28 µM in [2]; 4.39 µM in [3]; 4.94 µM in test [4]; 3.21 µM in test [5]; 7.33 µM in test [6]. Besides, the GI50 in test [7] is 1.93 µM; in test [8], 4.98 µM; in [9], 11.7 µM; in test [10], 4.55 µM. Also, the concentration for total growth inhibition (TGI) was found to be 25.6 µM in [1]; 7.62 µM in test [2]; 28.7 µM in test [3]; 22.7 µM in test [4]; 11.1 µM in [5]; 28.1 µM in test [6]. Moreover, the TGI in [7] was 7.25 µM; in [8] it was more than 69.3 µM; in test [9], 32.2 µM; in [10] it was 24 µM.
As to `C=C(C)[C@@H]1CC[C@]2(C(=O)O)CC[C@]3(C)[C@H](CC[C@@H]4[C@@]5(C)CCC(NC(=O)c6cccc(OC(C)=O)c6OC(C)=O)C(C)(C)[C@@H]5CC[C@]43C)[C@@H]12` (some centres undefined), the GI50 in [1] is 0.38 µM; in test [2], 0.488 µM; in test [3], 0.78 µM; in test [4], 0.376 µM; in [5] it was 0.345 µM; in [6], 1.04 µM. For the same compound, the GI50 in test [7] was 0.806 µM; in test [8], 0.832 µM; in test [9], 1.27 µM; in test [10], 0.562 µM. Also, the total growth inhibition concentration (TGI) in [1] was 1.42 µM; in test [2] it was 1.74 µM; in test [3], 11.9 µM; in test [4] it was 1.54 µM; in test [5] it was 1.9 µM; in [6], 3.26 µM. Also, the TGI stood at 3.14 µM in [7], 25.7 µM in test [8], 4.52 µM in test [9] and 3.89 µM in test [10].
As to `O=C1O[C@H](c2ccccc2)[C@@H]2CC3(CCN12)OCCO3`, the concentration for total growth inhibition (TGI) in [1], in test [2], in test [3], in [4], in [5] and in [6] was more than 100 µM throughout. Besides, the concentration for total growth inhibition (TGI) in [7], in test [8], in [9] and in [10] was more than 100 µM throughout.
